PMC7302004, “Tandem gene duplications drive divergent evolution of caffeine and crocin biosynthetic pathways in plants” (BMC Biology, 2020)

Assays:
GjALDH2C3 = target: T1, GjALDH2C3 (Gardenia jasminoides, UniProt A0A288W8F8); experiment: in vitro oxidation, UPLC-DAD and LC-MS; type: biochemical; conditions: products crocetin and crocetin semialdehyde
T1 sequence (A0A288W8F8 1-503): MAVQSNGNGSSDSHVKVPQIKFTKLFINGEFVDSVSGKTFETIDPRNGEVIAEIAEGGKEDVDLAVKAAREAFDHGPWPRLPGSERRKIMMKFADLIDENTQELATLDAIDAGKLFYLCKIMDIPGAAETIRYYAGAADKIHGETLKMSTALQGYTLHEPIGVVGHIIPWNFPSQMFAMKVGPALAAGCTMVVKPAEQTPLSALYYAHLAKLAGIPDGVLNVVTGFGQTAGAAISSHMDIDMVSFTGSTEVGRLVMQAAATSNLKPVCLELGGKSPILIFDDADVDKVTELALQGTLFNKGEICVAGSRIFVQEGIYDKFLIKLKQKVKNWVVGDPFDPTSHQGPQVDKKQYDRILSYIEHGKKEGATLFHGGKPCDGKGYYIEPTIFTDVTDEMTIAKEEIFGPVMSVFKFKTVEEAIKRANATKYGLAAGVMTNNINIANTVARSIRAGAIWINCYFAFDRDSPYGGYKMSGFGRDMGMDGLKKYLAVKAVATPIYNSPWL

GjUGT75L6 = target: T2, GjUGT75L6 (Gardenia jasminoides, UniProt F8WKW0); conditions: purification not stated in main text
T2 construct: gene UGT75L6

GjUGT74F8 [1] = target: T3, GjUGT74F8 (Gardenia jasminoides, UniProt Z9ZI51R9R0); experiment: in vitro glucosylation, UPLC-DAD and LC-MS; type: biochemical; conditions: products crocin III and crocin V
T3 sequence (Z9ZI51R9R0 1-457): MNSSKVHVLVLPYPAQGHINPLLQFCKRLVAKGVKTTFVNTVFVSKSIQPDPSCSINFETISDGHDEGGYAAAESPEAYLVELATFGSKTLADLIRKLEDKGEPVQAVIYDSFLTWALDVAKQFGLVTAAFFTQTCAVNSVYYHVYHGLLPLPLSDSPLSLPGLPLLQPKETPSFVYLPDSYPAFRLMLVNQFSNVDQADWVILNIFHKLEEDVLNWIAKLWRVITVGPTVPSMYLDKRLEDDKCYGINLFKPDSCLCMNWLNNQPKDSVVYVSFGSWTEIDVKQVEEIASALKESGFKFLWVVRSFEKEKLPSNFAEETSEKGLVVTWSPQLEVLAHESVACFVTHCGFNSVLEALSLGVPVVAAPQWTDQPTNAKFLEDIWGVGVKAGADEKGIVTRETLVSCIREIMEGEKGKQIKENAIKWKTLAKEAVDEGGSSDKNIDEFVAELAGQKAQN

GjUGT94E13 = target: T4, GjUGT94E13 (Gardenia jasminoides, UniProt A0A288W8G7); experiment: in vitro glucosylation, UPLC-DAD and LC-MS; type: biochemical; conditions: product crocin I
T4 sequence (A0A288W8G7 1-446): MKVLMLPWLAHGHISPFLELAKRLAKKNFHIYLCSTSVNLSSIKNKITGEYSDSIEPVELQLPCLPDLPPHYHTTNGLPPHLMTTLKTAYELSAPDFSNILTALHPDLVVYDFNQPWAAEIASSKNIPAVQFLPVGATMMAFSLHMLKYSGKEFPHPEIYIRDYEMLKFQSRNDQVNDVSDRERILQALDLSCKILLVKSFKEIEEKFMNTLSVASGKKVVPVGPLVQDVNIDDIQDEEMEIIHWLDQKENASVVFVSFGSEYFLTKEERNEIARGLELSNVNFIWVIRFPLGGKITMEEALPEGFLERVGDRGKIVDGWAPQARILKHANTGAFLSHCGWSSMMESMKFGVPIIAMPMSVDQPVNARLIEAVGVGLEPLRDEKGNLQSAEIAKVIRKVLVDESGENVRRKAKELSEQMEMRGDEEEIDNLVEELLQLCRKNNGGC

GjUGT74F8 [2] = target: T3, GjUGT74F8; experiment: in vitro de-glucosylation, UPLC-DAD and LC-MS; type: biochemical; conditions: reversible; product crocin IV
GjCCD4a = GjCCD4a (Gardenia jasminoides, UniProt A0A288W8F9); experiment: in bacterio carotenoid cleavage, UPLC-DAD and LC-MS; conditions: E. coli accumulating zeaxanthin; product crocetin dialdehyde
GjCCD4a, sequence (A0A288W8F9 entry or part of it): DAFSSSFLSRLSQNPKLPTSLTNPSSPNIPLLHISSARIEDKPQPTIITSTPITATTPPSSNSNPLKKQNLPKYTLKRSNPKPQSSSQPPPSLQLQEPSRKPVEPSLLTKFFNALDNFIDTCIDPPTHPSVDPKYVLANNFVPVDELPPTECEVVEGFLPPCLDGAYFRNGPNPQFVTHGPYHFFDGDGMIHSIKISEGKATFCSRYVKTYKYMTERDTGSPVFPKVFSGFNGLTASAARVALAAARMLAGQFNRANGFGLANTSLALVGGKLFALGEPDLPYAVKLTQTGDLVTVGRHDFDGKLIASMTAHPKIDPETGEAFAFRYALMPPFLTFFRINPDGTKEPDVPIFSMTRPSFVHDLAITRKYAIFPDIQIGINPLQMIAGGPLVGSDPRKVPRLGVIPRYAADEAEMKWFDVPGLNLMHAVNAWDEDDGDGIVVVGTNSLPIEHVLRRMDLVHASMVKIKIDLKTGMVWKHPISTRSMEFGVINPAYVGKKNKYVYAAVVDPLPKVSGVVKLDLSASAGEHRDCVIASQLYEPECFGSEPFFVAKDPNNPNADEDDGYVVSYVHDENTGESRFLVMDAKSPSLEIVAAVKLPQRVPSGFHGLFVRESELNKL

T2 sequence (F8WKW0 whole entry): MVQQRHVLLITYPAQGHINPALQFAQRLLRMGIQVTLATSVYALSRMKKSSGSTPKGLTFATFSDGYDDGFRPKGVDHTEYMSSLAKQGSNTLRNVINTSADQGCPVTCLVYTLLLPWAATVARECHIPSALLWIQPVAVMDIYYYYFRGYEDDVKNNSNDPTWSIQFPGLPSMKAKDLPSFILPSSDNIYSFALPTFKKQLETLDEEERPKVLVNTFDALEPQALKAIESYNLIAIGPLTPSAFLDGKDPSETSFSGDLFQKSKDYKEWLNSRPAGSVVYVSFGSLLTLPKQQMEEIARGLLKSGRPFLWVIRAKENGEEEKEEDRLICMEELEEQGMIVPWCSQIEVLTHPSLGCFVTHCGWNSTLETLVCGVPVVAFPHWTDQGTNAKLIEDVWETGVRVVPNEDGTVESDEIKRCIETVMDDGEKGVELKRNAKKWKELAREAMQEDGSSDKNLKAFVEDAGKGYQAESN

C\C(C=O)=C/C=C/C(C)=C/C=C/C=C(C)/C=C/C=C(\C)C=O [crocetin dialdehyde]
in vitro oxidation, UPLC-DAD and LC-MS (GjALDH2C3): Incubation of crocetin dialdehyde with GjALDH2C3 yielded two new peaks

CC(/C=C/C=C(\C)C(=O)O)=C\C=C\C=C(C)\C=C\C=C(/C)C(=O)O [crocetin]
in vitro glucosylation, UPLC (GjUGT75L6): GjUGT75L6, and GjUGT94E13, were able to glycosylate crocetin and/or crocins | in vitro glucosylation, UPLC-DAD and LC-MS (GjUGT74F8 [1]): Upon in vitro incubation of GjUGT74F8 with crocetin, two new peaks

CC(/C=C/C=C(\C)C(=O)O[C@@H]1O[C@H](CO)[C@@H](O)[C@H](O)[C@H]1O)=C\C=C\C=C(C)\C=C\C=C(/C)C(=O)O[C@@H]1O[C@H](CO[C@@H]2O[C@H](CO)[C@@H](O)[C@H](O)[C@H]2O)[C@@H](O)[C@H](O)[C@H]1O [crocin II]
in vitro glucosylation, UPLC-DAD and LC-MS (GjUGT94E13): GjUGT94E13 could efficiently catalyze the glycosylation of crocins II and III to crocin I | in vitro de-glucosylation, UPLC-DAD and LC-MS (GjUGT74F8 [2]): reversible conversion of crocin II to crocin IV and vice versa was observed

CC1=C(/C=C/C(C)=C/C=C/C(C)=C/C=C/C=C(C)/C=C/C=C(C)/C=C/C2=C(C)C[C@@H](O)CC2(C)C)C(C)(C)C[C@H](O)C1 [zeaxanthin]
in bacterio carotenoid cleavage, UPLC-DAD and LC-MS (GjCCD4a): a new product with a retention time and characteristic fragment ions
